According to patent publication US20230192661A1, “1, 4, 5, 6-TETRAHYDROPYRIMIDINE-2-AMINE DERIVATIVE” (UBE Corporation, priority 2020, published 2023):

How the values were obtained:
αvβ1 = target: T1, αvβ1 (UniProt G3HZ55+P06756); assay: αvβ1 cell adhesion inhibition test (αv-transfected CHO cells on human fibronectin); format: cell-based; settings: human fibronectin coating, 1 mM MnCl2, 1 hour, read-out: IC50 (rate of inhibition of cell adhesion, αvβ1)
T1 construct: expressed in transfected cells; host or cells: CHO cells deficient in α5 gene, transfected with αv gene
T1 sequence (P06756 31-889 limits assumed): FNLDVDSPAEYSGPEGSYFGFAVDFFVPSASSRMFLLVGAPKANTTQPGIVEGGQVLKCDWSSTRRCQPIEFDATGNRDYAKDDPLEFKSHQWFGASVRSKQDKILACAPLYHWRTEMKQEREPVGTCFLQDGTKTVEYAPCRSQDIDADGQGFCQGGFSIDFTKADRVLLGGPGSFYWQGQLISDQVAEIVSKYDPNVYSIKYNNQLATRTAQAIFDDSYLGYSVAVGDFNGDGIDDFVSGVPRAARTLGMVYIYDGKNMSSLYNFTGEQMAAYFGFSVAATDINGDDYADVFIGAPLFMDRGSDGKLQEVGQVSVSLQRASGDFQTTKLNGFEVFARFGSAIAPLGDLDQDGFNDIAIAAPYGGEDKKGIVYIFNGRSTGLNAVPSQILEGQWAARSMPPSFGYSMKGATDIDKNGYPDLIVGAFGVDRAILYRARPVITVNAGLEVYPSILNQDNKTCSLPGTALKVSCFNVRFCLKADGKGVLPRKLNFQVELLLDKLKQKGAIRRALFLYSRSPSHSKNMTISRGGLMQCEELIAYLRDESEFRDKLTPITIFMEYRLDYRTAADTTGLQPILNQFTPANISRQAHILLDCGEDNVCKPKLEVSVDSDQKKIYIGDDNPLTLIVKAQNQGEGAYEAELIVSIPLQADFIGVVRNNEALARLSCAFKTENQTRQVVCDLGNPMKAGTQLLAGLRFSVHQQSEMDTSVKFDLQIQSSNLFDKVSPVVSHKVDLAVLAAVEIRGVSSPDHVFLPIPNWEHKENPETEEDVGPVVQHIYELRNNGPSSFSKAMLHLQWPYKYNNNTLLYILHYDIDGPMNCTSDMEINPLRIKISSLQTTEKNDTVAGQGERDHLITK
T1 sequence (P06756 891-1048 limits assumed): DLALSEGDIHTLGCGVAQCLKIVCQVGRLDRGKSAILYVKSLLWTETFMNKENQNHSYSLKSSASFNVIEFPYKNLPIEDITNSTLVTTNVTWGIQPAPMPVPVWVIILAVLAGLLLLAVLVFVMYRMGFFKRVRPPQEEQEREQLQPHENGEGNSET
T1 sequence (G3HZ55 21-798): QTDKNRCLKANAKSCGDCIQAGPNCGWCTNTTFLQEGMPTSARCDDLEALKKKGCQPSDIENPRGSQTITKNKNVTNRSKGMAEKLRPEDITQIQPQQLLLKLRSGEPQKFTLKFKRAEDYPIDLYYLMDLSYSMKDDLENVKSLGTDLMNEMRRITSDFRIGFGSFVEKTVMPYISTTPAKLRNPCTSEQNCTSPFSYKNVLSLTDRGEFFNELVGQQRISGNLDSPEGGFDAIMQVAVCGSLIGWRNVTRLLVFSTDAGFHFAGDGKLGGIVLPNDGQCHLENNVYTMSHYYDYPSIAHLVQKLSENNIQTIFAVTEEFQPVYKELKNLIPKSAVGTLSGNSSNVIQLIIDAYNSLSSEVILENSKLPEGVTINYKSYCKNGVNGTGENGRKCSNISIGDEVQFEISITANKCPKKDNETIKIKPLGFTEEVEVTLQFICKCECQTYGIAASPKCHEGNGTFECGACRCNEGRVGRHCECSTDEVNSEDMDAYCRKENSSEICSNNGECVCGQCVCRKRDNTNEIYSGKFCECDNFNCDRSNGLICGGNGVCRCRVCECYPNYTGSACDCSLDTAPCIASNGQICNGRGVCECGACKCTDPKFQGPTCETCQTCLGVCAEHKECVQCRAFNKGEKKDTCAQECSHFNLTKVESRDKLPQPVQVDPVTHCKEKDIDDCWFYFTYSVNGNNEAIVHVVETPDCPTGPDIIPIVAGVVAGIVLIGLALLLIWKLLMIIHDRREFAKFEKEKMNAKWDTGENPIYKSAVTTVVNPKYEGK
Procedure: Test Example 1 was performed by partially modifying the method of Reed et al. (Sci Transl Med., 7 (288), 288ra79, 2015).
Human fibronectin (manufactured by Sigma-Aldrich Co. LLC, F0895) was prepared at 1.25 μg/mL with phosphate buffered saline (PBS), dispensed at 100 μL/well to a 96-well plate, and left standing overnight. The plate was washed with Hanks' balanced salt solution (HBSS), then subjected to blocking treatment with Dulbecco's modified Eagle medium (DMEM) containing 1% bovine serum-derived albumin (BSA) (FUJIFILM Wako Pure Chemical Corp., for cell culture, 017-22231), and used as a coated plate in the adhesion test.
αv-transfected cells (CHO cells deficient in α5 gene and transfected with αv gene) cultured in Ham's F-12 medium (FUJIFILM Wako Pure Chemical Corp., 087-08335) containing 10% fetal bovine serum (FBS), 1% penicillin/streptomycin/amphotericin B (manufactured by Thermo Fisher Scientific, Inc., 15240), 1 mM GlutaMAX Supplement (manufactured by Thermo Fisher Scientific, Inc., 35050), and 400 μg/mL hygromycin B (FUJIFILM Wako Pure Chemical Corp., 080-07683) were recovered and suspended in DMEM containing 1 mM MnCl2 (manufactured by Sigma-Aldrich Co. LLC, M1787) to prepare a cell suspension. A test compound dissolved in DMSO was added thereto.
The cell suspension of 1×10^6 cells/mL containing the test compound was added at 100 μL/well to the coated plate and left standing for 1 hour in a 5% CO2 incubator (37° C.). One hour later, the supernatant was removed, and the plate was washed with HBSS. The cells that adhered to each well in the plate were stained with crystal violet, and the cells were lysed, followed by absorbance measurement. Inhibition without substrate coating was defined as 100% inhibition, and inhibition when DMSO was added instead of the test compound was defined as 0% inhibition. The rate of inhibition of cell adhesion by the test compound was calculated according to the following expression.
Rate of inhibition of cell adhesion (%)=[1−{(Absorbance in the case of adding the test compound)−(Absorbance without substrate coating)}/{(Absorbance in the case of adding DMSO)−(Absorbance without substrate coating)}]×100
An IC50 value was calculated from the rate of inhibition of cell adhesion by the test compound. A: IC50<3 nM, B: 3 nM≤IC50<10 nM, C: 10 nM≤IC50<30 nM, D: 30 nM≤IC50<100 nM, or E: IC50≥100 nM.

[1] = test system: TGF-β activation (phosphorylated SMAD3); assay: TGF-β activation inhibition test (inhibition of SMAD3 phosphorylation in TFK-1 cells); format: cell-based; settings: 48 h, fibronectin-coated plate, cultured 2 days, read-out: IC50 (rate of inhibition of phosphorylated SMAD3)
Procedure: In Test Example 3, the inhibition of TGF-β activation by a compound was detected with the inhibition of SMAD3 phosphorylation as an index. In Test Example 3, the same reagents as in Test Example 1 were used unless otherwise specified.
Human fibronectin was prepared at 14 μg/mL with PBS and then dispensed at 50 μL/well to a 96-well plate. The plate was left standing at room temperature for 1 hour or longer, followed by the removal of the fibronectin solution. The plate was washed with PBS and used as a coated plate.
A test compound dissolved in DMSO was added to RPMI medium 1640 (manufactured by Thermo Fisher Scientific, Inc., 11875) containing 1% FBS and 1% penicillin/streptomycin/amphotericin B to prepare a medium containing the test compound having a concentration of two times the final concentration. This medium was added at 100 μL/well to the coated plate. TFK-1 cells (Cell Resource Center for Biomedical Research, Institute of Development, Aging and Cancer, Tohoku University) cultured in RPMI medium 1640 containing 10% FBS and 1% penicillin/streptomycin/amphotericin B were suspended in RPMI medium 1640 containing 1% FBS and 1% penicillin/streptomycin/amphotericin B to prepare a cell suspension of 1×10^6 cells/mL. The prepared cell suspension was further added at 100 μL/well and cultured for 2 days in a 5% CO2 incubator (37° C.).
Phosphorylated SMAD3 in the cells thus cultured for 2 days was measured using Phospho-SMAD3 (Ser423/425) cellular kit (manufactured by cisbio, 63ADK025), and a DeltaF value was calculated according to the calculation expression of the kit. Inhibition when 10 μM LY364947 (FUJIFILM Wako Pure Chemical Corp., 123-05981) was added instead of the test compound was defined as 100% inhibition, and inhibition when DMSO was added instead was defined as 0% inhibition. The rate of inhibition of phosphorylated SMAD3 by the test compound was calculated according to the following expression.
Rate of inhibition of phosphorylated SMAD3 (%)=[1−{(DeltaF value in the case of adding the test compound)−(DeltaF value in the case of adding 10 μM LY364947)}/{(DeltaF value in the case of adding DMSO)−(DeltaF value in the case of adding 10 μM LY364947)}]×100
An IC50 value was calculated from the rate of inhibition of phosphorylated SMAD3 by the test compound. A: IC50<10 nM, B: 10 nM≤IC50<50 nM, C: 50 nM≤IC50<100 nM, or D: IC50≥100 nM.

Compound	IC50 (αvβ1) [nM]	IC50 [1] [nM]
COc1ccc([C@H](CC(=O)O)NC(=O)CNC(=O)c2cc(NC3=NCC(F)CN3)c3cn[nH]c3c2)cc1Br (stereo partly drawn) [Example 16-(b), (3S)-3-(3-bromo-4-methoxyphenyl)-3-(2-(4-((5-fluoro-1,4,5,6-tetrahydropyrimidin-2-yl)amino)-1H-indazole-6-carboxamido)acetamido)propanoic acid]	< 3	10 to 50
O=C(O)C[C@H](NC(=O)CNC(=O)c1cc(NC2=NCC(F)CN2)c2cn[nH]c2c1)c1cc(Cl)cc(Cl)c1 (stereo partly drawn) [Example 17-(b), (3S)-3-(3,5-dichlorophenyl)-3-(2-(4-((5-fluoro-1,4,5,6-tetrahydropyrimidin-2-yl)amino)-1H-indazole-6-carboxamido)acetamido)propanoic acid]	< 3	< 10
O=C(O)C[C@H](NC(=O)CNC(=O)c1cc(NC2=NCC(F)CN2)c2cn[nH]c2c1)c1cc(Cl)cc(Br)c1 (stereo partly drawn) [Example 18-(b), (3S)-3-(3-bromo-5-chlorophenyl)-3-(2-(4-((5-fluoro-1,4,5,6-tetrahydropyrimidin-2-yl)amino)-1H-indazole-6-carboxamido)acetamido)propanoic acid]	< 3	10 to 50
O=C(O)C[C@H](NC(=O)CNC(=O)c1cc(NC2=NCC(F)CN2)c2cn[nH]c2c1)c1cc(Br)cc(Br)c1 (stereo partly drawn) [Example 19-(b), (3S)-3-(3,5-dibromophenyl)-3-(2-(4-((5-fluoro-1,4,5,6-tetrahydropyrimidin-2-yl)amino)-1H-indazole-6-carboxamido)acetamido)propanoic acid]	< 3	< 10
O=C(O)C[C@H](NC(=O)CNC(=O)c1cc(NC2=NCC(F)CN2)c2cn[nH]c2c1)c1cc(Br)cc(I)c1 (stereo partly drawn) [Example 20-(b), (3S)-3-(3-bromo-5-iodophenyl)-3-(2-(4-((5-fluoro-1,4,5,6-tetrahydropyrimidin-2-yl)amino)-1H-indazole-6-carboxamido)acetamido)propanoic acid]	< 3	< 10
O=C(O)C[C@H](NC(=O)CNC(=O)c1cc(NC2=NCC(F)CN2)c2cn[nH]c2c1)c1cc(Cl)cc(I)c1 (stereo partly drawn) [Example 21-(b), (3S)-3-(3-chloro-5-iodophenyl)-3-(2-(4-((5-fluoro-1,4,5,6-tetrahydropyrimidin-2-yl)amino)-1H-indazole-6-carboxamido)acetamido)propanoic acid]	< 3	< 10
O=C(O)C[C@H](NC(=O)CNC(=O)c1cc(NC2=NCC(F)CN2)c2cn[nH]c2c1)c1cc(Cl)ccc1F (stereo partly drawn) [Example 22-(b), (3S)-3-(5-chloro-2-fluorophenyl)-3-(2-(4-((5-fluoro-1,4,5,6-tetrahydropyrimidin-2-yl)amino)-1H-indazole-6-carboxamido)acetamido)propanoic acid]	10 to 30	10 to 50
O=C(O)C[C@H](NC(=O)CNC(=O)c1cc(NC2=NCC(F)CN2)c2cn[nH]c2c1)c1cc(Br)ccc1F (stereo partly drawn) [Example 23-(b), (3S)-3-(5-bromo-2-fluorophenyl)-3-(2-(4-((5-fluoro-1,4,5,6-tetrahydropyrimidin-2-yl)amino)-1H-indazole-6-carboxamido)acetamido)propanoic acid]	< 3	10 to 50
O=C(O)C[C@H](NC(=O)CNC(=O)c1cc(NC2=NCC(F)CN2)c2cn[nH]c2c1)c1cc(OC(F)F)cc(C(F)(F)F)c1 (stereo partly drawn) [Example 24-(b), (3S)-3-(3-(difluoromethoxy)-5-(trifluoromethyl)phenyl)-3-(2-(4-((5-fluoro-1,4,5,6-tetrahydropyrimidin-2-yl)amino)-1H-indazole-6-carboxamido)acetamido)propanoic acid]	< 3	< 10
O=C(O)C[C@H](NC(=O)CNC(=O)c1cc(NC2=NCC(F)CN2)c2cn[nH]c2c1)c1cc(Cl)cc(OC(F)F)c1 (stereo partly drawn) [Example 25-(b), (3S)-3-(3-chloro-5-(difluoromethoxy)phenyl)-3-(2-(4-((5-fluoro-1,4,5,6-tetrahydropyrimidin-2-yl)amino)-1H-indazole-6-carboxamido)acetamido)propanoic acid]	< 3	< 10
O=C(O)C[C@H](NC(=O)CNC(=O)c1cc(NC2=NCC(F)CN2)c2cn[nH]c2c1)c1cc(Br)cc(OC(F)F)c1 (stereo partly drawn) [Example 26-(b), (3S)-3-(3-bromo-5-(difluoromethoxy)phenyl)-3-(2-(4-((5-fluoro-1,4,5,6-tetrahydropyrimidin-2-yl)amino)-1H-indazole-6-carboxamido)acetamido)propanoic acid]	< 3	< 10
O=C(O)C[C@H](NC(=O)CNC(=O)c1cc(NC2=NCC(F)CN2)c2cn[nH]c2c1)c1ccc(F)c(OC(F)F)c1 (stereo partly drawn) [Example 27-(b), (3S)-3-(3-(difluoromethoxy)-4-fluorophenyl)-3-(2-(4-((5-fluoro-1,4,5,6-tetrahydropyrimidin-2-yl)amino)-1H-indazole-6-carboxamido)acetamido)propanoic acid]	< 3	< 10
O=C(O)C[C@H](NC(=O)CNC(=O)c1cc(NC2=NCC(F)CN2)c2cn[nH]c2c1)c1cc(OC(F)F)ccc1F (stereo partly drawn) [Example 28-(b), (3S)-3-(5-(difluoromethoxy)-2-fluorophenyl)-3-(2-(4-((5-fluoro-1,4,5,6-tetrahydropyrimidin-2-yl)amino)-1H-indazole-6-carboxamido)acetamido)propanoic acid]	< 3	10 to 50
O=C(O)C[C@H](NC(=O)CNC(=O)c1cc(NC2=NCC(F)CN2)c2cn[nH]c2c1)c1cc(OC(F)F)cc(-n2cccn2)c1 (stereo partly drawn) [Example 29-(b), (3S)-3-(3-(difluoromethoxy)-5-(1H-pyrazol-1-yl)phenyl)-3-(2-(4-((5-fluoro-1,4,5,6-tetrahydropyrimidin-2-yl)amino)-1H-indazole-6-carboxamido)acetamido)propanoic acid]	< 3	< 10
O=C(O)C[C@H](NC(=O)CNC(=O)c1cc(NC2=NCC(F)CN2)c2cn[nH]c2c1)c1cc(OC(F)F)cc(OC(F)F)c1 (stereo partly drawn) [Example 30-(b), (3S)-3-(3,5-bis(difluoromethoxy)phenyl)-3-(2-(4-((5-fluoro-1,4,5,6-tetrahydropyrimidin-2-yl)amino)-1H-indazole-6-carboxamido)acetamido)propanoic acid]	< 3	< 10
O=C(O)C[C@H](NC(=O)CNC(=O)c1cc(NC2=NCC(F)CN2)c2cn[nH]c2c1)c1cc(Cl)cc(OC(F)(F)F)c1 (stereo partly drawn) [Example 31-(b), (3S)-3-(3-chloro-5-(trifluoromethoxy)phenyl)-3-(2-(4-((5-fluoro-1,4,5,6-tetrahydropyrimidin-2-yl)amino)-1H-indazole-6-carboxamido)acetamido)propanoic acid]	3 to 10	< 10
